Assay results published in PubChem BioAssay AID1745844 (Carcinogenic Potency Database (CPDB), 2022).
Where “and” joins values, the source holds several entries; their conditions need not be identical. Equal values may be shown once. Calls of active or inactive are those of the source. No rule for the calls is given here.

System: rodent lifetime carcinogenesis bioassay, tumor incidence TD50
Experiment: chronic cancer bioassays in animals – CPDB, compiled studies (AID 1745844)

Clc1cc(Cl)cc(-c2cc(Cl)cc(Cl)c2)c1
carcinogen call (rat, strain Donryu, females, in feed, site: liver, lesion: one or several types, types not named, dosed 26 weeks, study length 84 weeks): negative (inactive)

C/C=C1/C[C@@H](C)[C@](O)(CO)C(=O)OCC2=CC[N+]3([O-])CC[C@@H](OC1=O)[C@@H]23 (some centres not stated)
TD50 (rat, strain Wistar, females, in drinking water, site: liver, lesion: hepatoma, dosed 103 weeks, study length 104 weeks): 1.27 mg/kg/day
TD50 (rat, strain Wistar, males, in drinking water, site: liver, lesion: hepatoma, dosed 103 weeks, study length 104 weeks): 0.499 mg/kg/day

CC(O)COC(C)(C)C (configuration not stated)
TD50 (mouse, strain B6C3F1, females, inhaled, site: any site (literature study), lesion: several types, types named in the paper, dosed 104 weeks, study length 104 weeks): 8120 mg/kg/day
TD50 (mouse, strain B6C3F1, females, inhaled, site: liver, lesion: hepatocellular adenoma + hepatoblastoma + hepatocellular carcinoma, dosed 104 weeks, study length 104 weeks): 1780 mg/kg/day
TD50 (mouse, strain B6C3F1, females, inhaled, site: liver, lesion: hepatocellular adenoma + hepatocellular carcinoma, dosed 104 weeks, study length 104 weeks): 1780 mg/kg/day
TD50 (mouse, strain B6C3F1, females, inhaled, site: liver, lesion: hepatocellular adenoma, dosed 104 weeks, study length 104 weeks): 1780 mg/kg/day
TD50 (mouse, strain B6C3F1, males, inhaled, site: any site (literature study), lesion: several types, types named in the paper, dosed 104 weeks, study length 104 weeks): 7930 mg/kg/day
TD50 (mouse, strain B6C3F1, males, inhaled, site: liver, lesion: hepatoblastoma, dosed 104 weeks, study length 104 weeks): 9320 mg/kg/day
TD50 (mouse, strain B6C3F1, males, inhaled, site: liver, lesion: hepatocellular adenoma + hepatoblastoma + hepatocellular carcinoma, dosed 104 weeks, study length 104 weeks): 1980 mg/kg/day
TD50 (mouse, strain B6C3F1, males, inhaled, site: liver, lesion: hepatocellular adenoma + hepatocellular carcinoma, dosed 104 weeks, study length 104 weeks): 1980 mg/kg/day
TD50 (mouse, strain B6C3F1, males, inhaled, site: liver, lesion: hepatocellular adenoma, dosed 104 weeks, study length 104 weeks): 1970 mg/kg/day
carcinogen call (rat, strain Fischer 344, females, inhaled, site: any site (literature study), lesion: several types, types named in the paper, dosed 104 weeks, study length 104 weeks): negative (inactive)
TD50 (rat, strain Fischer 344, females, inhaled, site: liver, lesion: hepatocellular adenoma + hepatoblastoma + hepatocellular carcinoma, dosed 104 weeks, study length 104 weeks): 10500 mg/kg/day
TD50 (rat, strain Fischer 344, males, inhaled, site: any site (literature study), lesion: several types, types named in the paper, dosed 104 weeks, study length 104 weeks): 683 mg/kg/day
TD50 (rat, strain Fischer 344, males, inhaled, site: kidney, lesion: tubule adenoma + tubule carcinoma, dosed 104 weeks, study length 104 weeks): 2280 mg/kg/day and 2650 mg/kg/day
TD50 (rat, strain Fischer 344, males, inhaled, site: kidney, lesion: tubule adenoma, dosed 104 weeks, study length 104 weeks): 4480 mg/kg/day and 3800 mg/kg/day
TD50 (rat, strain Fischer 344, males, inhaled, site: liver, lesion: hepatocellular adenoma + hepatoblastoma + hepatocellular carcinoma, dosed 104 weeks, study length 104 weeks): 1450 mg/kg/day
TD50 (rat, strain Fischer 344, males, inhaled, site: liver, lesion: hepatocellular adenoma, dosed 104 weeks, study length 104 weeks): 1450 mg/kg/day
TD50 (rat, strain Fischer 344, males, inhaled, site: skin, lesion: basal-cell adenoma + basal-cell carcinoma, dosed 104 weeks, study length 104 weeks): 1510 mg/kg/day
TD50 (rat, strain Fischer 344, males, inhaled, site: skin, lesion: basal-cell adenoma, dosed 104 weeks, study length 104 weeks): 2070 mg/kg/day

Cc1ccc(N=Nc2c(O)ccc3ccccc23)c([N+](=O)[O-])c1
TD50 (mouse, strain B6C3F1, females, in feed, site: any site (literature study), lesion: several types, types named in the paper, dosed 103 weeks, study length 104 weeks): 13800 mg/kg/day
TD50 (mouse, strain B6C3F1, females, in feed, site: liver, lesion: hepatocellular adenoma + hepatocellular carcinoma + neoplastic nodule, dosed 103 weeks, study length 104 weeks): 204000 mg/kg/day
TD50 (mouse, strain B6C3F1, females, in feed, site: lung, lesion: alveolar/bronchiolar adenoma + alveolar/bronchiolar carcinoma, dosed 103 weeks, study length 104 weeks): 252000 mg/kg/day
TD50 (mouse, strain B6C3F1, females, in feed, site: lymph node, lesion: axillary histiocytic sarcoma + deep cervical, histiocytic sarcoma + iliac histiocytic sarcoma + inguinal histiocytic sarcoma + r, dosed 103 weeks, study length 104 weeks): 104000 mg/kg/day (inactive)
TD50 (mouse, strain B6C3F1, males, in feed, site: all sites, lesion: malignant lymphoma, histiocytic type + malignant lymphoma, mixed type, dosed 103 weeks, study length 104 weeks): 22700 mg/kg/day
TD50 (mouse, strain B6C3F1, males, in feed, site: any site (literature study), lesion: several types, types named in the paper, dosed 103 weeks, study length 104 weeks): 9420 mg/kg/day
TD50 (mouse, strain B6C3F1, males, in feed, site: kidney cortex + thyroid gland, lesion: adenoma + follicular-cell adenoma, dosed 103 weeks, study length 104 weeks): 19500 mg/kg/day
TD50 (mouse, strain B6C3F1, males, in feed, site: kidney cortex, lesion: adenoma, dosed 103 weeks, study length 104 weeks): 35500 mg/kg/day
TD50 (mouse, strain B6C3F1, males, in feed, site: liver, lesion: hepatocellular adenoma + hepatocellular carcinoma + neoplastic nodule, dosed 103 weeks, study length 104 weeks): 17900 mg/kg/day
TD50 (mouse, strain B6C3F1, males, in feed, site: lung, lesion: alveolar/bronchiolar adenoma + alveolar/bronchiolar carcinoma, dosed 103 weeks, study length 104 weeks): 36900 mg/kg/day
TD50 (mouse, strain B6C3F1, males, in feed, site: thyroid gland, lesion: follicular-cell adenoma, dosed 103 weeks, study length 104 weeks): 38300 mg/kg/day
TD50 (rat, strain Fischer 344, females, in feed, site: liver, lesion: hepatocellular adenoma + hepatocellular carcinoma + neoplastic nodule, dosed 103 weeks, study length 104 weeks): 5240 mg/kg/day
TD50 (rat, strain Fischer 344, females, in feed, site: liver, lesion: hepatocellular adenoma, dosed 103 weeks, study length 104 weeks): 5240 mg/kg/day
TD50 (rat, strain Fischer 344, males, in feed, site: Zymbal's gland, lesion: carcinoma, dosed 103 weeks, study length 104 weeks): 9010 mg/kg/day
TD50 (rat, strain Fischer 344, males, in feed, site: adrenal medulla, lesion: pheochromocytoma, benign, dosed 103 weeks, study length 104 weeks): 674 mg/kg/day
TD50 (rat, strain Fischer 344, males, in feed, site: adrenal medulla, lesion: pheochromocytoma, malignant + pheochromocytoma, benign, dosed 103 weeks, study length 104 weeks): 661 mg/kg/day
TD50 (rat, strain Fischer 344, males, in feed, site: any site (literature study), lesion: several types, types named in the paper, dosed 103 weeks, study length 104 weeks): 906 mg/kg/day
TD50 (rat, strain Fischer 344, males, in feed, site: liver, lesion: hepatocellular adenoma + hepatocellular carcinoma + neoplastic nodule, dosed 103 weeks, study length 104 weeks): 5170 mg/kg/day
TD50 (rat, strain Fischer 344, males, in feed, site: skin, lesion: carcinoma + squamous-cell papilloma, dosed 103 weeks, study length 104 weeks): 3660 mg/kg/day
TD50 (rat, strain Fischer 344, males, in feed, site: skin, lesion: squamous-cell papilloma, dosed 103 weeks, study length 104 weeks): 2540 mg/kg/day

CC[N+](=O)[O-]
TD50 (rat, strain Long-Evans BLU:(LE), females, inhaled, site: liver, lesion: hepatocellular carcinoma, dosed 105 weeks, study length 105 weeks): 2190 mg/kg/day (inactive)
carcinogen call (rat, strain Long-Evans BLU:(LE), males, inhaled, site: liver, lesion: one or several types, types not named, dosed 105 weeks, study length 105 weeks): negative (inactive)

CC(=O)c1ccc(S(=O)(=O)NC(=O)NC2CCCCC2)cc1
carcinogen call (mouse, strain B6C3F1, females, in feed, site: any site (literature study), lesion: several types, types named in the paper, dosed 103 weeks, study length 107 weeks): negative (inactive)
TD50 (mouse, strain B6C3F1, males, in feed, site: any site (literature study), lesion: several types, types named in the paper, dosed 103 weeks, study length 107 weeks): 2370 mg/kg/day (inactive)
carcinogen call (rat, strain Fischer 344, females, in feed, site: any site (literature study), lesion: several types, types named in the paper, dosed 103 weeks, study length 106 weeks): negative (inactive)
TD50 (rat, strain Fischer 344, males, in feed, site: all sites, lesion: leukemia, dosed 103 weeks, study length 105 weeks): 527 mg/kg/day (inactive)
TD50 (rat, strain Fischer 344, males, in feed, site: any site (literature study), lesion: several types, types named in the paper, dosed 103 weeks, study length 105 weeks): 2120 mg/kg/day
TD50 (rat, strain Fischer 344, males, in feed, site: liver, lesion: hepatocellular adenoma + hepatocellular carcinoma + neoplastic nodule, dosed 103 weeks, study length 105 weeks): 16600 mg/kg/day

O=c1cc(CO)occ1O
TD50 (mouse, strain B6C3F1, females, in feed, site: liver, lesion: hepatocellular adenoma, dosed 84 weeks, study length 88 weeks): 20900 mg/kg/day
TD50 (mouse, strain B6C3F1, females, in feed, site: thyroid gland, lesion: follicular-cell adenoma, dosed 84 weeks, study length 88 weeks): 2610 mg/kg/day
TD50 (mouse, strain B6C3F1, males, in feed, site: liver, lesion: hepatocellular adenoma, dosed 84 weeks, study length 88 weeks): 19700 mg/kg/day
TD50 (mouse, strain B6C3F1, males, in feed, site: thyroid gland, lesion: follicular-cell adenoma, dosed 52 weeks, study length 52 weeks): 323 mg/kg/day
TD50 (mouse, strain B6C3F1, males, in feed, site: thyroid gland, lesion: follicular-cell adenoma, dosed 84 weeks, study length 88 weeks): 927 mg/kg/day

CCN=[N+]([O-])CC
TD50 (rat, strain Fischer 344, males, in drinking water, site: esophagus, lesion: several types, types named in the paper, dosed 30 weeks, study length 55 weeks): 0.0302 mg/kg/day
TD50 (rat, strain Fischer 344, males, in drinking water, site: liver, lesion: hemangiosarcoma, dosed 30 weeks, study length 55 weeks): 0.0347 mg/kg/day
TD50 (rat, strain Fischer 344, males, in drinking water, site: liver, lesion: hepatocellular carcinoma, dosed 30 weeks, study length 55 weeks): 0.0347 mg/kg/day
TD50 (rat, strain Fischer 344, males, in drinking water, site: liver, lesion: neurosarcoma, dosed 30 weeks, study length 55 weeks): 0.0971 mg/kg/day
carcinogen call (rat, strain Fischer 344, males, in drinking water, site: liver, lesion: several types, types named in the paper, dosed 30 weeks, study length 55 weeks): positive
TD50 (rat, strain Fischer 344, males, in drinking water, site: nasal cavity, lesion: several types, types named in the paper, dosed 30 weeks, study length 55 weeks): 0.022 mg/kg/day

O=NN1CCOC1=O
TD50 (rat, strain MRC-Wistar, males, in drinking water, site: any site (literature study), lesion: one or several types, types not named, dosed 70 weeks, study length 70 weeks): 0.335 mg/kg/day
carcinogen call (rat, strain MRC-Wistar, males, in drinking water, site: intestine, lesion: several types, types named in the paper, dosed 64 weeks, study length 64 weeks): positive
TD50 (rat, strain MRC-Wistar, males, in drinking water, site: intestine, lesion: several types, types named in the paper, dosed 70 weeks, study length 70 weeks): 0.729 mg/kg/day
TD50 (rat, strain MRC-Wistar, males, in drinking water, site: liver, lesion: several types, types named in the paper, dosed 64 weeks, study length 64 weeks): 0.582 mg/kg/day
TD50 (rat, strain MRC-Wistar, males, in drinking water, site: liver, lesion: several types, types named in the paper, dosed 70 weeks, study length 70 weeks): 1.15 mg/kg/day

CCNC(=O)N(CCO)N=O
TD50 (rat, strain Fischer 344, females, in drinking water, site: mammary tissue, wider than the gland, lesion: carcinoma, dosed 30 weeks, study length 104 weeks): 0.501 mg/kg/day
TD50 (rat, strain Fischer 344, males, in drinking water, site: liver, lesion: one or several types, types not named, dosed 30 weeks, study length 104 weeks): 1.09 mg/kg/day
TD50 (rat, strain Fischer 344, males, in drinking water, site: lung, lesion: one or several types, types not named, dosed 30 weeks, study length 104 weeks): 0.446 mg/kg/day
TD50 (rat, strain Fischer 344, males, in drinking water, site: nervous system, lesion: one or several types, types not named, dosed 30 weeks, study length 104 weeks): 0.754 mg/kg/day
TD50 (rat, strain Fischer 344, males, in drinking water, site: skin, lesion: one or several types, types not named, dosed 30 weeks, study length 104 weeks): 0.641 mg/kg/day
TD50 (rat, strain Fischer 344, males, in drinking water, site: tunica vaginalis, lesion: mesothelioma, dosed 30 weeks, study length 104 weeks): 0.576 mg/kg/day

CCCN=[N+]([O-])CCC
TD50 (rat, strain Sprague-Dawley, males, by gavage, site: liver, lesion: hepatocellular carcinoma, dosed 26 weeks, study length 77 weeks): 0.00736 mg/kg/day
TD50 (rat, strain Sprague-Dawley, males, by gavage, site: nasal cavity, lesion: esthesioneuroepithelioma, dosed 26 weeks, study length 77 weeks): 0.000723 mg/kg/day
TD50 (rat, strain Sprague-Dawley, males, by gavage, site: nasal cavity, lesion: papilloma, dosed 26 weeks, study length 77 weeks): 0.00736 mg/kg/day
TD50 (rat, strain Sprague-Dawley, males, by gavage, site: nasal cavity, lesion: several types, types named in the paper, dosed 26 weeks, study length 77 weeks): 0.000596 mg/kg/day
TD50 (rat, strain Sprague-Dawley, males, by gavage, site: skin, lesion: keratoacanthoma, dosed 26 weeks, study length 77 weeks): 0.00038 mg/kg/day
carcinogen call (rat, strain Sprague-Dawley, males, by gavage, site: skin, lesion: several types, types named in the paper, dosed 26 weeks, study length 77 weeks): positive
